Data: US8343475B2, “Small cationic antimicrobial peptides” (priority 2006, dated 2013)
≈ marks a conversion by molar mass, not a printed value. Residues, ends and D or L forms follow the SMILES beside them.

Tests used:
[1] = tested on: Liverpool Epidemic Strains; format: cell-based, Pseudomonas aeruginosa
Method: (§1) Minimal inhibitory concentration (MIC) determination. The MIC of the peptides were measured using a modified broth microdilution method in Mueller Hinton (MH) medium (Wu M, Hancock R E W. 1999. Interaction of the cyclic antimicrobial cationic peptide bactenecin with the outer and cytoplasmic membrane. J Biol Chem 274, 29-35). Briefly, the peptides were dissolved and stored in glass vials. The assay was performed in sterile 96-well polypropylene microtitre plates were used. Serial dilutions of the peptides to be assayed were performed in 0.01% acetic acid (Fisher) containing 0.2% bovine serum albumin (Boehringer Mannheim GmbH) at 10× the desired final concentration. Ten microlitres of the 10× peptides were added to each well of a 96-well polypropylene plate containing 90 μl of MH media per well. Bacteria were added to the plate from an overnight culture at 2-7×10^5 colony forming units/ml and incubated over night at 37° C. The MIC was taken as the concentration at which no growth was observed.
(§2) All peptides derived from the 1st, 2nd, and 3rd quartiles were further evaluated for their antibacterial activities against several highly antibitoic resistant pathogens (Table 3). These included clinical isolates of MRSA, ESBL E. cloacae, and multidrug resistant Pseudomonas strains including Brazilian clinical isolates of P. aeruginosa that are resistant to meropenem, ceftazidime, piperacillin/tazobactam, ciprofloxacin, cefepime and polymyxin B, and the Liverpool Epidemic Strains. […] Such results characterize the developed peptides as excellent antibiotic candidates, providing new means for treating most dangerous and severe forms of human infections.

[2] = tested on: multidrug resistant Brazilian clinical isolates of P. aeruginosa; format: cell-based, Pseudomonas aeruginosa
Method: as §1, §2

[3] = tested on: MCP-1 release by human PBMC; test: Chemokine induction in PBMC (capture ELISA); format: cell-based; details: background (204) subtracted
Summary of the method: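 Heparinized blood from healthy volunteers; Ficoll-isolated human PBMC (7.5×10^5) treated with peptides at 20 or 100 μg/ml for 24 hours at 37° C, 5% CO2. Cell-free supernatants assayed for MCP-1 by capture ELISA.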

[4] = tested on: ESBL E. coli clinical strain 64771; format: cell-based; details: ESBL clinical strain 64771
Method: as §1
(§3) The selected peptides were synthesized and assayed against several major antibiotic-resistant pathogens. Initially, the peptides were screened against the laboratory strain of P. aeruginosa PAO1 to compare the results with the training data. […] The antibacterial activity in the form of minimal inhibitory concentration (MIC) of the other studied peptides was assessed in greater depth (Table 9) against many highly antibiotic resistanct pathogens.

[5] = tested on: ESBL Klebsiella pneumonia clinical strain 63575; format: cell-based
Method: as §1, §3

[6] = tested on: multidrug resistant Pseudomonas maltophilia ATCC13637; format: cell-based
Method: as §1, §3

[7] = tested on: ESBL E. cloacae; format: cell-based, Enterobacter cloacae
Method: as §1, §2

[8] = tested on: Enterococcus faecalis ATCC29212; format: cell-based; details: ATCC29212
Summary of the method: (§4)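 Broth microdilution in Mueller Hinton medium; peptides serially diluted at 10× in 0.01% acetic acid with 0.2% BSA, then added to polypropylene plates. Inoculum 2-7×10^5 CFU/ml from overnight culture, incubated overnight at 37° C. MIC = lowest concentration showing no growth.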

[9] = tested on: Staphylococcus aureus ATCC25923; format: cell-based; details: ATCC25923
Summary of the method: as §4

[10] = tested on: MCP-3 release by human PBMC; test: Chemokine induction in PBMC (capture ELISA); format: cell-based; details: background (6) subtracted
Summary of the method: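 Human PBMC from healthy donors (Ficoll-isolated), 7.5×10^5 cells at 0.75–1×10^6 cells/ml, treated with peptides at 20 or 100 μg/ml for 24 h at 37° C, 5% CO2. MCP-3 in cell-free supernatants measured by capture ELISA.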

[11] = tested on: clinical isolates of MRSA; format: cell-based, Staphylococcus aureus
Method: as §1, §2

[12] = tested on: CXCL1 (Gro-α) release by human PBMC; test: Chemokine induction in PBMC (capture ELISA); format: cell-based; details: background (196) subtracted
Summary of the method: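 Human PBMC from healthy donors' heparinised blood (Ficoll), 7.5×10^5 cells treated with 20 or 100 μg/ml peptide for 24 h at 37° C, 5% CO2. Cell-free supernatants assayed for CXCL1 by capture ELISA.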

[13] = tested on: Pseudomonas aeruginosa PAO1 strain H103; format: cell-based; details: PAO1
Summary of the method: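 Modified broth microdilution MIC in Mueller Hinton medium, peptides diluted in 0.01% acetic acid/0.2% BSA, polypropylene plates. Inoculum 2-7×10^5 CFU/ml, overnight at 37 °C; MIC is the lowest concentration with no visible growth.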

CC(C)C[C@H](NC(=O)[C@H](Cc1c[nH]c2ccccc12)NC(=O)[C@H](Cc1c[nH]c2ccccc12)NC(=O)[C@H](CCCCN)NC(=O)[C@H](Cc1c[nH]c2ccccc12)NC(=O)[C@H](CCCNC(=N)N)NC(=O)[C@H](CCCNC(=N)N)NC(=O)[C@H](Cc1c[nH]c2ccccc12)NC(=O)[C@@H](N)CCCNC(=N)N)C(N)=O [HHC9, RWRRWKWWL] (H-RWRRWKWWL-NH2; N-terminus assumed)
MIC [1]: 0.3 µM (≈ 0.442 µg/mL) | MIC [2]: 12 µM (≈ 17.7 µg/mL) | Chemokine induction MCP-1 ([3]; 20 μg/ml peptide): 9 pg/mL | Chemokine induction MCP-1 ([3]; 100 μg/ml peptide): 4493 pg/mL | MIC [4]: 3 µM (≈ 4.42 µg/mL) | MIC [5]: 11 µM (≈ 16.2 µg/mL) | MIC [6]: 0.7 µM (≈ 1.03 µg/mL) | MIC [7]: 6 µM (≈ 8.83 µg/mL) | MIC [8]: 23 µM (≈ 33.9 µg/mL) | MIC [9]: 3 µM (≈ 4.42 µg/mL) | Chemokine induction MCP-3 ([10]; 20 μg/ml peptide): -1 pg/mL | Chemokine induction MCP-3 ([10]; 100 μg/ml peptide): 48 pg/mL | MIC [11]: 3 µM (≈ 4.42 µg/mL) | Chemokine induction Gro-α ([12]; 20 μg/ml peptide): -25 pg/mL | Chemokine induction Gro-α ([12]; 100 μg/ml peptide): 5 pg/mL

CC[C@H](C)[C@H](NC(=O)[C@H](CCCCN)NC(=O)[C@H](Cc1c[nH]c2ccccc12)NC(=O)[C@H](Cc1c[nH]c2ccccc12)NC(=O)[C@H](CCCNC(=N)N)NC(=O)[C@@H](N)Cc1c[nH]c2ccccc12)C(=O)N[C@@H](Cc1c[nH]c2ccccc12)C(=O)N[C@@H](CCCCN)C(=O)N[C@@H](CCCNC(=N)N)C(N)=O [HHC20, WRWWKIWKR] (H-WRWWKIWKR-NH2; N-terminus assumed)
MIC [1]: 1.5 µM (≈ 2.17 µg/mL) | MIC [2]: 24 µM (≈ 34.7 µg/mL) | Chemokine induction MCP-1 ([3]; 20 μg/ml peptide): 290 pg/mL | Chemokine induction MCP-1 ([3]; 100 μg/ml peptide): 974 pg/mL | MIC [4]: 6 µM (≈ 8.66 µg/mL) | MIC [5]: 24 µM (≈ 34.7 µg/mL) | MIC [6]: 0.8 µM (≈ 1.16 µg/mL) | MIC [7]: 12 µM (≈ 17.3 µg/mL) | MIC [8]: 24 µM (≈ 34.7 µg/mL) | MIC [9]: 3 µM (≈ 4.33 µg/mL) | Chemokine induction MCP-3 ([10]; 20 μg/ml peptide): 8 pg/mL | Chemokine induction MCP-3 ([10]; 100 μg/ml peptide): 12 pg/mL | MIC [11]: 3 µM (≈ 4.33 µg/mL) | Chemokine induction Gro-α ([12]; 20 μg/ml peptide): 169 pg/mL | Chemokine induction Gro-α ([12]; 100 μg/ml peptide): 33 pg/mL

N=C(N)NCCC[C@H](NC(=O)[C@H](Cc1c[nH]c2ccccc12)NC(=O)[C@H](CCCCN)NC(=O)[C@H](CCCCN)NC(=O)[C@H](Cc1c[nH]c2ccccc12)NC(=O)[C@H](Cc1c[nH]c2ccccc12)NC(=O)[C@H](CCCNC(=N)N)NC(=O)[C@H](CCCCN)NC(=O)[C@@H](N)Cc1c[nH]c2ccccc12)C(N)=O [HHC45, WKRWWKKWR] (H-WKRWWKKWR-NH2; N-terminus assumed)
MIC [1]: 6 µM (≈ 8.75 µg/mL) | MIC [2]: 46 µM (≈ 67.1 µg/mL) | Chemokine induction MCP-1 ([3]; 20 μg/ml peptide): -9 pg/mL | Chemokine induction MCP-1 ([3]; 100 μg/ml peptide): 161 pg/mL | MIC [4]: 3 µM (≈ 4.38 µg/mL) | MIC [5]: 46 µM (≈ 67.1 µg/mL) | MIC [6]: 1.4 µM (≈ 2.04 µg/mL) | MIC [7]: 93 µM (≈ 136 µg/mL) | MIC [8]: 93 µM (≈ 136 µg/mL) | MIC [9]: 68 µM (≈ 99.2 µg/mL) | Chemokine induction MCP-3 ([10]; 20 μg/ml peptide): -2 pg/mL | Chemokine induction MCP-3 ([10]; 100 μg/ml peptide): -2 pg/mL | MIC [11]: 6 µM (≈ 8.75 µg/mL) | Chemokine induction Gro-α ([12]; 20 μg/ml peptide): -15 pg/mL | Chemokine induction Gro-α ([12]; 100 μg/ml peptide): -32 pg/mL

N=C(N)NCCC[C@H](NC(=O)[C@H](CCCNC(=N)N)NC(=O)[C@H](CCCCN)NC(=O)[C@H](Cc1c[nH]c2ccccc12)NC(=O)[C@H](Cc1c[nH]c2ccccc12)NC(=O)[C@H](CCCCN)NC(=O)[C@H](CCCCN)NC(=O)[C@@H](N)Cc1c[nH]c2ccccc12)C(=O)N[C@@H](Cc1c[nH]c2ccccc12)C(N)=O [HHC48, WKKWWKRRW] (H-WKKWWKRRW-NH2; N-terminus assumed)
MIC [1]: 6 µM (≈ 8.75 µg/mL) | MIC [2]: 46 µM (≈ 67.1 µg/mL) | Chemokine induction MCP-1 ([3]; 20 μg/ml peptide): 2 pg/mL | Chemokine induction MCP-1 ([3]; 100 μg/ml peptide): 12 pg/mL | MIC [4]: 3 µM (≈ 4.38 µg/mL) | MIC [5]: 46 µM (≈ 67.1 µg/mL) | MIC [6]: 1.4 µM (≈ 2.04 µg/mL) | MIC [7]: 23 µM (≈ 33.6 µg/mL) | MIC [8]: 93 µM (≈ 136 µg/mL) | MIC [9]: 1.4 µM (≈ 2.04 µg/mL) | Chemokine induction MCP-3 ([10]; 20 μg/ml peptide): -1 pg/mL | Chemokine induction MCP-3 ([10]; 100 μg/ml peptide): -1 pg/mL | MIC [11]: 39 µM (≈ 56.9 µg/mL) | Chemokine induction Gro-α ([12]; 20 μg/ml peptide): -8 pg/mL | Chemokine induction Gro-α ([12]; 100 μg/ml peptide): -10 pg/mL

CC[C@H](C)[C@H](NC(=O)[C@H](Cc1c[nH]c2ccccc12)NC(=O)[C@H](Cc1c[nH]c2ccccc12)NC(=O)[C@H](CCCCN)NC(=O)[C@H](CC(C)C)NC(=O)[C@H](CCCNC(=N)N)NC(=O)[C@H](CCCCN)NC(=O)[C@@H](N)CCCNC(=N)N)C(=O)N[C@@H](Cc1ccc(O)cc1)C(N)=O [HHC66, RKRLKWWIY] (H-RKRLKWWIY-NH2; N-terminus assumed)
MIC [1]: 6 µM (≈ 8.09 µg/mL) | MIC [2]: 50 µM (≈ 67.4 µg/mL) | Chemokine induction MCP-1 ([3]; 20 μg/ml peptide): 351 pg/mL | Chemokine induction MCP-1 ([3]; 100 μg/ml peptide): 355 pg/mL | MIC [4]: 6 µM (≈ 8.09 µg/mL) | MIC [5]: 50 µM (≈ 67.4 µg/mL) | MIC [6]: 3 µM (≈ 4.04 µg/mL) | MIC [7]: 13 µM (≈ 17.5 µg/mL) | MIC [8]: 50 µM (≈ 67.4 µg/mL) | MIC [9]: 6 µM (≈ 8.09 µg/mL) | Chemokine induction MCP-3 ([10]; 20 μg/ml peptide): 0 pg/mL | Chemokine induction MCP-3 ([10]; 100 μg/ml peptide): 0 pg/mL | MIC against P. aeruginosa PAO1 [13]: 4 to 12 µM | MIC [11]: 6 µM (≈ 8.09 µg/mL) | Chemokine induction Gro-α ([12]; 20 μg/ml peptide): -12 pg/mL | Chemokine induction Gro-α ([12]; 100 μg/ml peptide): -23 pg/mL

CC[C@H](C)[C@H](NC(=O)[C@H](CCCCN)NC(=O)[C@H](Cc1c[nH]c2ccccc12)NC(=O)[C@@H](N)CCCCN)C(=O)N[C@@H](Cc1ccccc1)C(=O)N[C@@H](CCCNC(=N)N)C(=O)N[C@@H](CCCNC(=N)N)C(=O)N[C@@H](Cc1c[nH]c2ccccc12)C(=O)N[C@@H](Cc1c[nH]c2ccccc12)C(N)=O [HHC71, KWKIFRRWW] (H-KWKIFRRWW-NH2; N-terminus assumed)
MIC [1]: 3 µM (≈ 4.21 µg/mL) | MIC [2]: 24 µM (≈ 33.7 µg/mL) | Chemokine induction MCP-1 ([3]; 20 μg/ml peptide): -6 pg/mL | Chemokine induction MCP-1 ([3]; 100 μg/ml peptide): 99 pg/mL | MIC [4]: 12 µM (≈ 16.9 µg/mL) | MIC [5]: 97 µM (≈ 136 µg/mL) | MIC [6]: 1.5 µM (≈ 2.11 µg/mL) | MIC [7]: 6 µM (≈ 8.43 µg/mL) | MIC [8]: 24 µM (≈ 33.7 µg/mL) | MIC [9]: 3 µM (≈ 4.21 µg/mL) | Chemokine induction MCP-3 ([10]; 20 μg/ml peptide): 0 pg/mL | Chemokine induction MCP-3 ([10]; 100 μg/ml peptide): 2 pg/mL | MIC against P. aeruginosa PAO1 [13]: 4 to 12 µM | MIC [11]: 3 µM (≈ 4.21 µg/mL) | Chemokine induction Gro-α ([12]; 20 μg/ml peptide): -17 pg/mL | Chemokine induction Gro-α ([12]; 100 μg/ml peptide): 1 pg/mL
